This note sets out measurements from the NIST ThermoML archive (doi:10.1016/j.jct.2019.02.004).

The nature of data set [1]: Molar enthalpy of transition or fusion. The conditions noted are these: Crystal; DSC.
For data set [2] the following is noted: Crystal; DTA.

Numbers after ± are expanded uncertainties.

As for `CC(=O)Nc1ccc(Cl)cc1` [N(4-chlorophenyl)ethanamide], in data set [1], the “Molar enthalpy of transition or fusion” value worked out at 6.49 ± 0.234 kcal/mol. Further, the Normal melting temperature in data set [2] came out at 175.7 ± 1.1 °C.
